{"source": "paper PMC8260761", "about": "“A bacteriocin-based treatment option for Staphylococcus haemolyticus biofilms” (Scientific Reports, 2021)", "test_in_all_cases": "Spot-on-lawn inhibition assay", "format_in_all_cases": "cell-based", "key": {"[1]": {"test_system": "Staphylococcus haemolyticus strains", "design": "key to Average inhibition score: –: “−” = No inhibition; “+” = Unclear zone; “++” = zone < 1 cm; “+++” = zone ≥ 1 cm", "procedure": "(§1) A semi-quantitative spot-on-lawn inhibitory assay was performed on 51 bacterial indicator strains (Table S1) to determine the bacteriocins inhibition spectra. Overnight cultures were diluted 1:100 in BHI soft agar and distributed on BHI agar plates. Once solidified, bacteriocins with various concentrations were applied on designated spots. The plates were incubated at appropriate temperature O/N and inhibition zones were measured the following day. To determine minimal inhibitory concentration (MIC50) of H1 against clinical S. haemolyticus isolates (Table S2), as well as strains heterologously expressing RseP (Table S4), the microtiterplate antimicrobial assay was performed as previously described[41],[79]. MIC50 was defined as the minimal bacteriocin concentration needs to inhibit the growth of a bacterial strain by at least 50%."}, "[2]": {"test_system": "L. monocytogenes", "design": "key: –: “−” = No inhibition; “+” = Unclear zone; “++” = zone < 1 cm; “+++” = zone ≥ 1 cm", "conditions": "L. monocytogenes EDGe; 5 µl at 1 mg/ml; n=3", "procedure": "as §1"}, "[3]": {"test_system": "Bacillus cereus", "design": "key: –: “−” = No inhibition; “+” = Unclear zone; “++” = zone < 1 cm; “+++” = zone ≥ 1 cm", "conditions": "5 µl at 1 mg/ml, n=3", "procedure": "as §1"}, "[4]": {"test_system": "C. piscicola", "design": "key: –: “−” = No inhibition; “+” = Unclear zone; “++” = zone < 1 cm; “+++” = zone ≥ 1 cm", "conditions": "C. piscicola LMG 2332; 5 µl at 1 mg/ml; n=3", "procedure": "as §1"}, "[5]": {"test_system": "S. uberis", "design": "key: –: “−” = No inhibition; “+” = Unclear zone; “++” = zone < 1 cm; “+++” = zone ≥ 1 cm", "conditions": "S. uberis 7904-3; 5 µl at 1 mg/ml; n=3", "procedure": "as §1"}, "[6]": {"test_system": "S. epidermidis", "design": "key: “-“ = No inhibition; “+” = Unclear zone; “++” = zone < 1 cm; “+++”= zone > 1 cm", "conditions": "S. epidermidis LMG 3522; 5 µl at 1 mg/ml; n=3", "procedure": "as §1"}, "[7]": {"test_system": "L. lactis", "design": "key: “-“ = No inhibition; “+” = Unclear zone; “++” = zone < 1 cm; “+++”= zone > 1 cm", "conditions": "5 µl at 1 mg/ml, n=3", "procedure": "as §1"}, "[8]": {"test_system": "L. gelidum", "design": "key: “-“ = No inhibition; “+” = Unclear zone; “++” = zone < 1 cm; “+++”= zone > 1 cm", "conditions": "L. gelidum LMG 2386; 5 µl at 1 mg/ml; n=3", "procedure": "as §1"}, "[9]": {"test_system": "Staphylococcus arlettae", "design": "key: “-“ = No inhibition; “+” = Unclear zone; “++” = zone < 1 cm; “+++”= zone > 1 cm", "conditions": "Staphylococcus arlettae LMG 4134; 5 µl at 1 mg/ml; n=3", "procedure": "as §1"}}, "data": [{"sequence": "MKFKFNPTGTIVKKLTQYEIAWFKNKHGYYPWEIPRC [K1, enterocin K1]", "values": [{"measurement": "Average inhibition score", "setting": "[1]; S. haemolyticus 4068, 5 μl at 1 mg/ml, n = 3", "result": "–"}, {"measurement": "Average inhibition score", "setting": "[1]; S. haemolyticus 4069, 5 μl at 1 mg/ml, n = 3", "result": "–"}, {"measurement": "Average inhibition score", "setting": "[1]; S. haemolyticus 4070, 5 μl at 1 mg/ml, n = 3", "result": "–"}, {"measurement": "Average inhibition score", "setting": "[1]; S. haemolyticus 4071, 5 μl at 1 mg/ml, n = 3", "result": "–"}, {"measurement": "Average inhibition score", "setting": "[1]; S. haemolyticus 4072, 5 μl at 1 mg/ml, n = 3", "result": "–"}, {"measurement": "Average inhibition score", "setting": "[1]; S. haemolyticus 4073, 5 μl at 1 mg/ml, n = 3", "result": "–"}, {"measurement": "Average inhibition score", "setting": "[1]; S. haemolyticus 7067_4_21, 5 μl at 1 mg/ml, n = 3", "result": "–"}, {"measurement": "Average inhibition score", "setting": "[1]; S. haemolyticus 7067_4_28, 5 μl at 1 mg/ml, n = 3", "result": "–"}, {"measurement": "Average inhibition score", "setting": "[1]; S. haemolyticus 7067_4_39, 5 μl at 1 mg/ml, n = 3", "result": "–"}, {"measurement": "Average inhibition score", "setting": "[1]; S. haemolyticus 7067_4_48, 5 μl at 1 mg/ml, n = 3", "result": "–"}, {"measurement": "Average inhibition score", "setting": "[1]; S. haemolyticus 7067_4_49, 5 μl at 1 mg/ml, n = 3", "result": "–"}, {"measurement": "Average inhibition score", "setting": "[1]; S. haemolyticus 7067_4_56, 5 μl at 1 mg/ml, n = 3", "result": "–"}, {"measurement": "Average inhibition score", "setting": "[1]; S. haemolyticus 7067_4_60, 5 μl at 1 mg/ml, n = 3", "result": "++ (“++” = zone < 1 cm)"}, {"measurement": "Average inhibition score", "setting": "[1]; S. haemolyticus 7067_4_66, 5 μl at 1 mg/ml, n = 3", "result": "–"}, {"measurement": "Average inhibition score", "setting": "[1]; S. haemolyticus 7067_4_67, 5 μl at 1 mg/ml, n = 3", "result": "–"}, {"measurement": "Average inhibition score", "setting": "[1]; S. haemolyticus 7067_4_71, 5 μl at 1 mg/ml, n = 3", "result": "–"}, {"measurement": "Average inhibition score", "setting": "[1]; S. haemolyticus 7067_4_84, 5 μl at 1 mg/ml, n = 3", "result": "–"}, {"measurement": "Average inhibition score", "setting": "[1]; S. haemolyticus 7068_7_63, 5 μl at 1 mg/ml, n = 3", "result": "–"}, {"measurement": "Average inhibition score", "setting": "[1]; S. haemolyticus LMG 4133, 5 µl at 1 mg/ml, n=3", "result": "+"}, {"measurement": "Average inhibition score", "setting": "[1]; S. haemolyticus SH01, 5 μl at 1 mg/ml, n = 3", "result": "–"}, {"measurement": "Average inhibition score", "setting": "[1]; S. haemolyticus SH04, 5 μl at 1 mg/ml, n = 3", "result": "–"}, {"measurement": "Average inhibition score", "setting": "[1]; S. haemolyticus SH09, 5 μl at 1 mg/ml, n = 3", "result": "–"}, {"measurement": "Average inhibition score", "setting": "[1]; S. haemolyticus SH10, 5 μl at 1 mg/ml, n = 3", "result": "+"}, {"measurement": "Average inhibition score", "setting": "[1]; S. haemolyticus SH14, 5 μl at 1 mg/ml, n = 3", "result": "–"}, {"measurement": "Average inhibition score", "setting": "[1]; S. haemolyticus SH20, 5 μl at 1 mg/ml, n = 3", "result": "+"}, {"measurement": "Average inhibition score", "setting": "[1]; S. haemolyticus SH46, 5 μl at 1 mg/ml, n = 3", "result": "–"}, {"measurement": "Average inhibition score", "setting": "[1]; S. haemolyticus SH47, 5 μl at 1 mg/ml, n = 3", "result": "+"}, {"measurement": "Inhibition zones at three concentrations", "setting": "[1]; six S. haemolyticus strains 4068–4073, 0.04, 0.2 and 1.0 mg/ml, 5 µl spotted", "result": "did not result in any inhibition"}, {"measurement": "Average inhibition score", "setting": "[2]", "result": "+"}, {"measurement": "Average inhibition score", "setting": "[3]; B. cereus LMG 2711", "result": "+"}, {"measurement": "Average inhibition score", "setting": "[3]; B. cereus LMG 2731", "result": "+"}, {"measurement": "Average inhibition score", "setting": "[3]; Bacillus cereus LMG 2805", "result": "+"}, {"measurement": "Average inhibition score", "setting": "[4]", "result": "+"}, {"measurement": "Average inhibition score", "setting": "[5]", "result": "+"}, {"measurement": "Average inhibition score", "setting": "[6]", "result": "-"}, {"measurement": "Average inhibition score", "setting": "[7]; L. lactis IL1403", "result": "+++ (“+++”= zone > 1 cm)"}, {"measurement": "Average inhibition score", "setting": "[7]; L. lactis LMG 2081", "result": "-"}, {"measurement": "Average inhibition score", "setting": "[8]", "result": "-"}, {"measurement": "Average inhibition score", "setting": "[9]", "result": "-"}]}]}
